For eight molecules, GI50 and TGI results are on record in PubChem BioAssay (NCI).

Values joined by “and” are separate entries in the source; they are usually repeats but may differ in a detail not shown here. Identical values can stand only once.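 Protocol summary: plate cells (96-well), add compound at 5 concentrations, incubate 48 h, interpolate endpoints linearly. Here, GI50 denotes the concentration required for 50% inhibition of growth. Definition used: TGI = concentration required for complete inhibition of growth.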 A value given as a limit tells only on which side of the number the result lay.

Among the test systems are A498 renal; HCT-116 colon; HL-60(TB) leukemia; K-562 leukemia; M14 melanoma; MDA-MB-435; MOLT-4 leukemia; NCI-H226 lung; SK-MEL-28 melanoma; SW-620 colon.
Holding throughout (experiment): NCI tumour cell line growth inhibition, 48 h

With `Cc1nn(CNc2ccccc2C(F)(F)F)c(=S)n1/N=C/c1ccc(F)cc1`, the GI50 is greater than 100 µM in the experiment on A498 renal; 91.2 µM in the experiment on HCT-116 colon; 91.9 µM in the experiment with HL-60(TB) leukemia; 89.4 µM with K-562 leukemia; 87.9 µM with M14 melanoma; greater than 100 µM in the experiment on MDA-MB-435. In addition, the GI50 was 46.6 µM in the experiment with MOLT-4 leukemia, 43.7 µM in the experiment with NCI-H226 lung, 50 µM in the experiment with SK-MEL-28 melanoma and greater than 100 µM in the experiment on SW-620 colon. Besides, the TGI in the experiment with A498 renal, in the experiment on HCT-116 colon, in the experiment with HL-60(TB) leukemia, in the experiment with K-562 leukemia, with M14 melanoma and in the experiment on MDA-MB-435 was greater than 100 µM each time. In addition, the TGI in the experiment on MOLT-4 leukemia, in the experiment with NCI-H226 lung, in the experiment with SK-MEL-28 melanoma and in the experiment with SW-620 colon was greater than 100 µM throughout.

`Clc1ccc2ns[s+]c2c1`: the TGI with A498 renal was greater than 100 µM; in the experiment on HCT-116 colon, greater than 100 µM; in the experiment on HL-60(TB) leukemia, greater than 77.9 µM; with K-562 leukemia, greater than 100 µM; with M14 melanoma it was greater than 100 µM; with MDA-MB-435, greater than 100 µM. The TGI in the experiment with MOLT-4 leukemia, in the experiment with NCI-H226 lung, in the experiment on SK-MEL-28 melanoma and with SW-620 colon was greater than 100 µM throughout.

For `O=C(N/N=C/c1ccc(Cl)cc1)c1[nH]c2ccc(Cl)cc2c1-c1ccccc1`, the GI50 in the experiment with A498 renal was 15.4 µM; in the experiment with HCT-116 colon, 0.114 µM; in the experiment on HL-60(TB) leukemia, 0.107 µM; in the experiment on K-562 leukemia, 0.206 µM; in the experiment on M14 melanoma it was 0.0937 µM; in the experiment on MDA-MB-435, 0.245 µM. The GI50 in the experiment with MOLT-4 leukemia is 0.108 µM; in the experiment with NCI-H226 lung, 0.29 µM; in the experiment on SK-MEL-28 melanoma, 2.77 µM; with SW-620 colon, 0.159 µM. For the same molecule, the TGI is greater than 100 µM in the experiment on A498 renal; 1.56 µM in the experiment on HCT-116 colon; 0.393 µM with HL-60(TB) leukemia; 12.7 µM in the experiment with K-562 leukemia; 18.5 µM in the experiment on M14 melanoma; 0.72 µM in the experiment with MDA-MB-435. The TGI with MOLT-4 leukemia was greater than 32 µM; in the experiment with NCI-H226 lung, greater than 44.5 µM; with SK-MEL-28 melanoma it was greater than 68.1 µM; in the experiment with SW-620 colon, greater than 100 µM.

Turning to `CCCCN(CCCC)CCc1c(C)cc(C)c(CCN(CCCC)CCCC)c1O`, the GI50 with A498 renal was 2.3 µM; in the experiment with HCT-116 colon it was 1.87 µM; in the experiment on HL-60(TB) leukemia, 2.51 µM; with K-562 leukemia, 2.25 µM; in the experiment with M14 melanoma, 3.15 µM; in the experiment on MDA-MB-435 it was 3.11 µM. For the same molecule, the GI50 is 2.73 µM in the experiment on MOLT-4 leukemia, 3.16 µM with NCI-H226 lung, 3.97 µM with SK-MEL-28 melanoma and 2.88 µM in the experiment on SW-620 colon. The TGI in the experiment on A498 renal is 7.31 µM; in the experiment with HCT-116 colon, 8.34 µM; in the experiment on HL-60(TB) leukemia, 8.17 µM; with K-562 leukemia it was greater than 100 µM; in the experiment with M14 melanoma it was 20.8 µM; with MDA-MB-435, 53.2 µM. Besides, the TGI was 10.8 µM in the experiment on MOLT-4 leukemia, 37.8 µM in the experiment with NCI-H226 lung, greater than 100 µM in the experiment with SK-MEL-28 melanoma and greater than 100 µM in the experiment with SW-620 colon.

As for `COc1cc2c(c(OC)c1OC)-c1ccc(O)c(=O)cc1[C@@H](NC(C)=O)CC2`, the GI50 with A498 renal is 15 µM; in the experiment on HCT-116 colon, 4.23 µM; with HL-60(TB) leukemia it was 3.31 µM; in the experiment on K-562 leukemia, 6.91 µM; in the experiment on M14 melanoma, 9.54 µM; in the experiment on MDA-MB-435, 14.3 µM. In addition, the GI50 in the experiment with MOLT-4 leukemia is 4.66 µM; in the experiment on NCI-H226 lung, 10.5 µM; in the experiment with SK-MEL-28 melanoma it was 7.48 µM; with SW-620 colon, 7 µM. In addition, the TGI with A498 renal was > 100 µM and 44.1 µM; in the experiment with HCT-116 colon it was greater than 100 µM; in the experiment on HL-60(TB) leukemia, 15.6 µM and 32.7 µM; in the experiment with K-562 leukemia it was greater than 100 µM; with M14 melanoma it was 60.7 µM and 78.2 µM; in the experiment with MDA-MB-435, > 100 µM and 47.4 µM. Besides, the TGI with MOLT-4 leukemia is 45.8 µM and 34.2 µM; in the experiment with NCI-H226 lung, 80 µM and 44 µM; with SK-MEL-28 melanoma, greater than 100 µM; in the experiment on SW-620 colon, > 100 µM and 82.5 µM.

As for `COC(=O)[C@]1(C)CCC[C@@]2(C)[C@@H]3C[C@@H]4[C@H]5C[C@@]3(CC[C@@H]21)C[C@@]45C`, the TGI with A498 renal amounted to 34.1 µM; in the experiment with HCT-116 colon it was 45.2 µM; in the experiment on HL-60(TB) leukemia it was 17.8 µM; in the experiment on K-562 leukemia, 19.1 µM; with M14 melanoma it was 38.8 µM; with MDA-MB-435 it was 38.7 µM. The TGI with MOLT-4 leukemia is 33.8 µM; with NCI-H226 lung, 30.5 µM; with SK-MEL-28 melanoma it was 47.1 µM; in the experiment on SW-620 colon, 62.6 µM.

For `COc1cc(/C=C2\CN(C(=O)CCN3CCC(=NO)CC3)C/C(=C\c3cc(OC)c(OC)c(OC)c3)C2=O)cc(OC)c1OC`, the GI50 with A498 renal was 0.658 µM; in the experiment with HCT-116 colon, 0.206 µM; in the experiment with HL-60(TB) leukemia, 0.298 µM; in the experiment on K-562 leukemia, 0.301 µM; with M14 melanoma, 0.248 µM; in the experiment with MDA-MB-435, 0.239 µM. For the same molecule, the GI50 in the experiment on MOLT-4 leukemia is 0.328 µM; in the experiment on NCI-H226 lung, 0.792 µM; with SK-MEL-28 melanoma, 0.279 µM; with SW-620 colon it was 0.273 µM. Moreover, the TGI was 2.07 µM in the experiment on A498 renal; 0.467 µM with HCT-116 colon; 1.05 µM in the experiment on HL-60(TB) leukemia; greater than 100 µM in the experiment on K-562 leukemia; 0.812 µM in the experiment with M14 melanoma; 0.637 µM with MDA-MB-435. Moreover, the TGI with MOLT-4 leukemia came out at 12.1 µM; in the experiment on NCI-H226 lung, 2.85 µM; with SK-MEL-28 melanoma, 0.766 µM; in the experiment with SW-620 colon, 0.86 µM.

Take `Cn1cc(C2=C(c3cn(C)c4cc(N)ccc34)C(=O)NC2=O)c2ccccc21`: the GI50 in the experiment on A498 renal is 0.944 µM; with HCT-116 colon, 1.28 µM; with HL-60(TB) leukemia it was 1.1 µM; in the experiment on K-562 leukemia it was 0.396 µM; with M14 melanoma, 4.96 µM; in the experiment with MDA-MB-435, 0.112 µM. Also, the GI50 is 2.26 µM in the experiment with MOLT-4 leukemia, 3.59 µM in the experiment on NCI-H226 lung, 4.71 µM in the experiment with SK-MEL-28 melanoma and 1.5 µM with SW-620 colon. The TGI is 7.54 µM in the experiment with A498 renal; greater than 25 µM in the experiment with HCT-116 colon; 5.52 µM in the experiment on HL-60(TB) leukemia; greater than 23.8 µM with K-562 leukemia; greater than 25 µM in the experiment on M14 melanoma; greater than 21.2 µM with MDA-MB-435. Besides, the TGI in the experiment with MOLT-4 leukemia was greater than 18.7 µM; with NCI-H226 lung, 17.2 µM; with SK-MEL-28 melanoma, 18.4 µM; in the experiment on SW-620 colon, greater than 25 µM.
